Experimental data taken from patent publication US8247211B2, “Glycopeptide antibiotics” (American Cyanamid Company, priority 2001, dated 2012).
Converted amounts (≈) assume the structure as drawn.

What was measured:
Assay in all cases: In vitro antibacterial evaluation: minimum inhibitory concentration (MIC), broth dilution method
Type in all cases: cell-based
Escherichia coli [1] = tested on: Escherichia coli
Enterococcus sp. = tested on: Enterococcus sp.
Summary of the method: (§1)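 Inoculum: 5×10^5 CFU/mL. Range: 64-0.06 μg/mL. Medium: Muller-Hinton II […]; NCCLS M7-A2 broth dilution. Endpoint: lowest concentration inhibiting growth. Strains include methicillin-, penicillin- and/or vancomycin-resistant clinical isolates.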

Escherichia coli [2] = tested on: Escherichia coli; remark: listed apart in the source
Summary of the method: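 Values are minimum inhibitory concentrations, meaning the smallest antibiotic concentration that stops growth of the organism. They come from broth dilution in Muller-Hinton II […] per NCCLS guidance (M7-A2), using 5×10^5 CFU/mL and concentrations from 64 to 0.06 μg/mL.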

Staphylococcus sp. = settings: 18 hours at 35° C.
Summary of the method: as §1

CC(C)CC(=O)OC1C(O)C(CO)OC(OC2C(CO)OC(Oc3ccc(CC4NC(=O)C(C(C)c5cccs5)NC(=O)CNC(=O)C(CO)NC(=O)C(C(O)C5CNC(=N)N5C5OC(CO)C(O)C(O)C5O)NC(=O)C(C(O)C5CNC(=N)N5)NC4=O)cc3)C(O)C2O)C1O (stereo not drawn) [Example 265b]
MIC Escherichia coli (ATCC 25922) (Escherichia coli [1]): >64 µg/mL
MIC Enterococcus avium (GC 4558) (Enterococcus sp.): 64 µg/mL (≈ 46.2 µM)
MIC Enterococcus faecalis (ATCC 29212) (Enterococcus sp.): 64 µg/mL (≈ 46.2 µM)
MIC Enterococcus faecalis (GC 4553) (Enterococcus sp.): 64 µg/mL (≈ 46.2 µM)
MIC Enterococcus faecalis (GC 4554) (Enterococcus sp.): >64 µg/mL
MIC Enterococcus faecium (GC 2243) (Enterococcus sp.): 64 µg/mL (≈ 46.2 µM)
MIC Enterococcus faecium (GC 4556) (Enterococcus sp.): 64 µg/mL (≈ 46.2 µM)
MIC Enterococcus faecium (GC 4557) (Enterococcus sp.): 8 µg/mL (≈ 5.77 µM)
MIC Enterococcus faecalis (GC 2242) (Enterococcus sp.; broth dilution, 18 hours at 35° C., strain GC 2242): 4 µg/mL (≈ 2.89 µM)
MIC Enterococcus faecalis (GC 2691) (Enterococcus sp.; broth dilution, 18 hours at 35° C., strain GC 2691): 64 µg/mL (≈ 46.2 µM)
MIC Escherichia coli (GC 4559) (Escherichia coli [2]): 64 µg/mL (≈ 46.2 µM)
MIC Escherichia coli (GC 4560) (Escherichia coli [2]): 4 µg/mL (≈ 2.89 µM)
MIC Coagulase Negative Staphylococcus (GC 4547) (Staphylococcus sp.): 8 µg/mL (≈ 5.77 µM)
MIC Coagulase Negative Staphylococcus (GC 4547) (Staphylococcus sp.; broth dilution): 8 µg/mL (≈ 5.77 µM)
MIC Coagulase Negative Staphylococcus (GC 4548) (Staphylococcus sp.): 4 µg/mL (≈ 2.89 µM)
MIC Coagulase Negative Staphylococcus (GC 4548) (Staphylococcus sp.; broth dilution): 4 µg/mL (≈ 2.89 µM)
MIC Coagulase Negative Staphylococcus (GC 4549) (Staphylococcus sp.): 4 µg/mL (≈ 2.89 µM)
MIC Coagulase Negative Staphylococcus (GC 4549) (Staphylococcus sp.; broth dilution): 4 µg/mL (≈ 2.89 µM)
MIC Coagulase Negative Staphylococcus (GC 4551) (Staphylococcus sp.): 8 µg/mL (≈ 5.77 µM)
MIC Coagulase Negative Staphylococcus (GC 4551) (Staphylococcus sp.; broth dilution): 8 µg/mL (≈ 5.77 µM)
MIC Staphylococcus aureus (ATCC 29213) (Staphylococcus sp.): 16 µg/mL (≈ 11.5 µM)
MIC Staphylococcus aureus (ATCC 29213) (Staphylococcus sp.; broth dilution): 16 µg/mL (≈ 11.5 µM)
MIC Staphylococcus aureus (GC 1131) (Staphylococcus sp.): 32 µg/mL (≈ 23.1 µM)
MIC Staphylococcus aureus (GC 1131) (Staphylococcus sp.; broth dilution): 32 µg/mL (≈ 23.1 µM)
MIC Staphylococcus aureus (GC 4541) (Staphylococcus sp.): 8 µg/mL (≈ 5.77 µM)
MIC Staphylococcus aureus (GC 4541) (Staphylococcus sp.; broth dilution): 8 µg/mL (≈ 5.77 µM)
MIC Staphylococcus aureus (GC 4542) (Staphylococcus sp.): 8 µg/mL (≈ 5.77 µM)
MIC Staphylococcus aureus (GC 4542) (Staphylococcus sp.; broth dilution): 8 µg/mL (≈ 5.77 µM)
MIC Staphylococcus aureus (GC 4544) (Staphylococcus sp.): 8 µg/mL (≈ 5.77 µM)
MIC Staphylococcus aureus (GC 4544) (Staphylococcus sp.; broth dilution): 8 µg/mL (≈ 5.77 µM)
MIC Staphylococcus aureus (GC 4545) (Staphylococcus sp.): 8 µg/mL (≈ 5.77 µM)
MIC Staphylococcus aureus (GC 4545) (Staphylococcus sp.; broth dilution): 8 µg/mL (≈ 5.77 µM)
MIC Staphylococcus aureus-SMITH (GC 4543) (Staphylococcus sp.): 8 µg/mL (≈ 5.77 µM)
MIC Staphylococcus aureus-SMITH (GC 4543) (Staphylococcus sp.; broth dilution): 8 µg/mL (≈ 5.77 µM)
MIC Staphylococcus haemolyticus (GC 4546) (Staphylococcus sp.): 8 µg/mL (≈ 5.77 µM)
MIC Staphylococcus haemolyticus (GC 4546) (Staphylococcus sp.; broth dilution): 8 µg/mL (≈ 5.77 µM)

CC(C)CCC(=O)OC1C(OC2C(CO)OC(Oc3ccc(CC4NC(=O)C(C(C)c5ccccc5)NC(=O)CNC(=O)C(CO)NC(=O)C(C(O)C5CNC(=N)N5C5OC(CO)C(O)C(O)C5O)NC(=O)C(C(O)C5CNC(=N)N5)NC4=O)cc3)C(O)C2O)OC(CO)C(O)C1O (stereo not drawn) [Example 270a, Cyclo[glycyl-β-methylphenylalanyl-O-[4-O-[2-O-(4-methylpentanoyl)hexopyranosyl]-hexopyranosyl]tyrosyl-3-(2-iminoimidazolidin-4-yl)seryl-3-(3-hexopyranosyl-2-iminoimidazolidin-4-yl)serylseryl]]
MIC Escherichia coli (ATCC 25922) (Escherichia coli [1]): >64 µg/mL
MIC Enterococcus avium (GC 4558) (Enterococcus sp.): 16 µg/mL (≈ 11.5 µM)
MIC Enterococcus faecalis (ATCC 29212) (Enterococcus sp.): 16 µg/mL (≈ 11.5 µM)
MIC Enterococcus faecalis (GC 4553) (Enterococcus sp.): 16 µg/mL (≈ 11.5 µM)
MIC Enterococcus faecalis (GC 4554) (Enterococcus sp.): 32 µg/mL (≈ 23 µM)
MIC Enterococcus faecium (GC 2243) (Enterococcus sp.): 16 µg/mL (≈ 11.5 µM)
MIC Enterococcus faecium (GC 4556) (Enterococcus sp.): 16 µg/mL (≈ 11.5 µM)
MIC Enterococcus faecium (GC 4557) (Enterococcus sp.): 4 µg/mL (≈ 2.87 µM)
MIC Escherichia coli (GC 4559) (Escherichia coli [2]): >64 µg/mL
MIC Escherichia coli (GC 4560) (Escherichia coli [2]): 2 µg/mL (≈ 1.44 µM)
MIC Coagulase Negative Staphylococcus (GC 4547) (Staphylococcus sp.): 2 µg/mL (≈ 1.44 µM)
MIC Coagulase Negative Staphylococcus (GC 4547) (Staphylococcus sp.; broth dilution): 2 µg/mL (≈ 1.44 µM)
MIC Coagulase Negative Staphylococcus (GC 4548) (Staphylococcus sp.): 2 µg/mL (≈ 1.44 µM)
MIC Coagulase Negative Staphylococcus (GC 4548) (Staphylococcus sp.; broth dilution): 2 µg/mL (≈ 1.44 µM)
MIC Coagulase Negative Staphylococcus (GC 4549) (Staphylococcus sp.): 2 µg/mL (≈ 1.44 µM)
MIC Coagulase Negative Staphylococcus (GC 4549) (Staphylococcus sp.; broth dilution): 2 µg/mL (≈ 1.44 µM)
MIC Coagulase Negative Staphylococcus (GC 4551) (Staphylococcus sp.): 4 µg/mL (≈ 2.87 µM)
MIC Coagulase Negative Staphylococcus (GC 4551) (Staphylococcus sp.; broth dilution): 4 µg/mL (≈ 2.87 µM)
MIC Staphylococcus aureus (ATCC 29213) (Staphylococcus sp.): 4 µg/mL (≈ 2.87 µM)
MIC Staphylococcus aureus (ATCC 29213) (Staphylococcus sp.; broth dilution): 4 µg/mL (≈ 2.87 µM)
MIC Staphylococcus aureus (GC 1131) (Staphylococcus sp.): 4 µg/mL (≈ 2.87 µM)
MIC Staphylococcus aureus (GC 1131) (Staphylococcus sp.; broth dilution): 4 µg/mL (≈ 2.87 µM)
MIC Staphylococcus aureus (GC 4541) (Staphylococcus sp.): 4 µg/mL (≈ 2.87 µM)
MIC Staphylococcus aureus (GC 4541) (Staphylococcus sp.; broth dilution): 4 µg/mL (≈ 2.87 µM)
MIC Staphylococcus aureus (GC 4542) (Staphylococcus sp.): 4 µg/mL (≈ 2.87 µM)
MIC Staphylococcus aureus (GC 4542) (Staphylococcus sp.; broth dilution): 4 µg/mL (≈ 2.87 µM)
MIC Staphylococcus aureus (GC 4544) (Staphylococcus sp.): 4 µg/mL (≈ 2.87 µM)
MIC Staphylococcus aureus (GC 4544) (Staphylococcus sp.; broth dilution): 4 µg/mL (≈ 2.87 µM)
MIC Staphylococcus aureus (GC 4545) (Staphylococcus sp.): 4 µg/mL (≈ 2.87 µM)
MIC Staphylococcus aureus (GC 4545) (Staphylococcus sp.; broth dilution): 4 µg/mL (≈ 2.87 µM)
MIC Staphylococcus aureus-SMITH (GC 4543) (Staphylococcus sp.): 4 µg/mL (≈ 2.87 µM)
MIC Staphylococcus aureus-SMITH (GC 4543) (Staphylococcus sp.; broth dilution): 4 µg/mL (≈ 2.87 µM)
MIC Staphylococcus haemolyticus (GC 4546) (Staphylococcus sp.): 2 µg/mL (≈ 1.44 µM)
MIC Staphylococcus haemolyticus (GC 4546) (Staphylococcus sp.; broth dilution): 2 µg/mL (≈ 1.44 µM)

CC=C(C)C(=O)OC1C(CO)OC(OC2C(CO)OC(Oc3ccc(CC4NC(=O)C(C(C)c5ccccc5)NC(=O)CNC(=O)C(CO)NC(=O)C(C(O)C5CNC(=N)N5C5OC(CO)C(O)C(O)C5O)NC(=O)C(C(O)C5CNC(=N)N5)NC4=O)cc3)C(O)C2O)C(O)C1O (stereo not drawn) [Example 278b, Cyclo[glycyl-β-methylphenylalanyl-O-[4-O-[4-O-(2-methylbut-2-enoyl)hexopyranosyl]-hexopyranosyl]tyrosyl-3-(2-iminoimidazolidin-4-yl)seryl-3-(3-hexopyranosyl-2-imino-imidazolidin-4-yl)serylseryl]]
MIC Escherichia coli (ATCC 25922) (Escherichia coli [1]): >64 µg/mL
MIC Enterococcus avium (GC 4558) (Enterococcus sp.): 32 µg/mL (≈ 23.2 µM)
MIC Enterococcus faecalis (ATCC 29212) (Enterococcus sp.): 32 µg/mL (≈ 23.2 µM)
MIC Enterococcus faecalis (GC 4553) (Enterococcus sp.): 32 µg/mL (≈ 23.2 µM)
MIC Enterococcus faecalis (GC 4554) (Enterococcus sp.): 32 µg/mL (≈ 23.2 µM)
MIC Enterococcus faecalis (GC 6189) (Enterococcus sp.; Enterococcus faecalis (GC 6189)): 32 µg/mL (≈ 23.2 µM)
MIC Enterococcus faecium (GC 2243) (Enterococcus sp.): 32 µg/mL (≈ 23.2 µM)
MIC Enterococcus faecium (GC 4556) (Enterococcus sp.): 32 µg/mL (≈ 23.2 µM)
MIC Enterococcus faecium (GC 4557) (Enterococcus sp.): 8 µg/mL (≈ 5.81 µM)
MIC Escherichia coli (GC 4559) (Escherichia coli [2]): >64 µg/mL
MIC Escherichia coli (GC 4560) (Escherichia coli [2]): 4 µg/mL (≈ 2.9 µM)
MIC Coagulase Negative Staphylococcus (GC 4547) (Staphylococcus sp.): 4 µg/mL (≈ 2.9 µM)
MIC Coagulase Negative Staphylococcus (GC 4547) (Staphylococcus sp.; broth dilution): 4 µg/mL (≈ 2.9 µM)
MIC Coagulase Negative Staphylococcus (GC 4548) (Staphylococcus sp.): 4 µg/mL (≈ 2.9 µM)
MIC Coagulase Negative Staphylococcus (GC 4548) (Staphylococcus sp.; broth dilution): 4 µg/mL (≈ 2.9 µM)
MIC Coagulase Negative Staphylococcus (GC 4549) (Staphylococcus sp.): 2 µg/mL (≈ 1.45 µM)
MIC Coagulase Negative Staphylococcus (GC 4549) (Staphylococcus sp.; broth dilution): 2 µg/mL (≈ 1.45 µM)
MIC Coagulase Negative Staphylococcus (GC 4551) (Staphylococcus sp.): 8 µg/mL (≈ 5.81 µM)
MIC Coagulase Negative Staphylococcus (GC 4551) (Staphylococcus sp.; broth dilution): 8 µg/mL (≈ 5.81 µM)
MIC Coagulase Negative Staphylococcus (GC 6257) (Staphylococcus sp.): 2 µg/mL (≈ 1.45 µM)
MIC Coagulase Negative Staphylococcus (GC 6257) (Staphylococcus sp.; broth dilution): 2 µg/mL (≈ 1.45 µM)
MIC Staphylococcus aureus (ATCC 29213) (Staphylococcus sp.): 8 µg/mL (≈ 5.81 µM)
MIC Staphylococcus aureus (ATCC 29213) (Staphylococcus sp.; broth dilution): 8 µg/mL (≈ 5.81 µM)
MIC Staphylococcus aureus (GC 1131) (Staphylococcus sp.): 8 µg/mL (≈ 5.81 µM)
MIC Staphylococcus aureus (GC 1131) (Staphylococcus sp.; broth dilution): 8 µg/mL (≈ 5.81 µM)
MIC Staphylococcus aureus (GC 3051) (Staphylococcus sp.): 4 µg/mL (≈ 2.9 µM)
MIC Staphylococcus aureus (GC 3051) (Staphylococcus sp.; broth dilution): 4 µg/mL (≈ 2.9 µM)
MIC Staphylococcus aureus (GC 3053) (Staphylococcus sp.): 8 µg/mL (≈ 5.81 µM)
MIC Staphylococcus aureus (GC 3053) (Staphylococcus sp.; broth dilution): 8 µg/mL (≈ 5.81 µM)
MIC Staphylococcus aureus (GC 4541) (Staphylococcus sp.): 8 µg/mL (≈ 5.81 µM)
MIC Staphylococcus aureus (GC 4541) (Staphylococcus sp.; broth dilution): 8 µg/mL (≈ 5.81 µM)
MIC Staphylococcus aureus (GC 4542) (Staphylococcus sp.): 8 µg/mL (≈ 5.81 µM)
MIC Staphylococcus aureus (GC 4542) (Staphylococcus sp.; broth dilution): 8 µg/mL (≈ 5.81 µM)
MIC Staphylococcus aureus (GC 4544) (Staphylococcus sp.): 8 µg/mL (≈ 5.81 µM)
MIC Staphylococcus aureus (GC 4544) (Staphylococcus sp.; broth dilution): 8 µg/mL (≈ 5.81 µM)
MIC Staphylococcus aureus (GC 4545) (Staphylococcus sp.): 4 µg/mL (≈ 2.9 µM)
MIC Staphylococcus aureus (GC 4545) (Staphylococcus sp.; broth dilution): 4 µg/mL (≈ 2.9 µM)
MIC Staphylococcus aureus-SMITH (GC 4543) (Staphylococcus sp.): 8 µg/mL (≈ 5.81 µM)
MIC Staphylococcus aureus-SMITH (GC 4543) (Staphylococcus sp.; broth dilution): 8 µg/mL (≈ 5.81 µM)
MIC Staphylococcus haemolyticus (GC 4546) (Staphylococcus sp.): 4 µg/mL (≈ 2.9 µM)
MIC Staphylococcus haemolyticus (GC 4546) (Staphylococcus sp.; broth dilution): 4 µg/mL (≈ 2.9 µM)
